Data on two compounds can be found in publication PMC7338687, “Allosteric Coupling Between Drug Binding and the Aromatic Cassette in the Pore Domain of the hERG1 Channel: Implications for a State-Dependent Blockade” (Frontiers in Pharmacology, 2020).

Structures are written as SMILES. Where two headings read alike, the source gives them in different places.

In one data set the test system is guinea pig myocytes. On the set-up: method as in Duff et al., 1995. The settings on record: ref Duff et al., 1995, cited from earlier work.
A further data set relates to M651T hERG1. Further details: method as in Perissinotti et al., 2019. The note with it: ref Perissinotti et al., 2019; cited from earlier work.
For the next data set, the target named is F656C hERG1 (Homo sapiens, UniProt Q12809, F656C). Description: whole-cell patch-clamp of hERG1 tail currents, F656C mutant. From the text: (§1) The site-directed mutagenesis methods utilized in this work have been previously reported ([Lees-Miller et al., 2015]; [Wang et al., 2016]). The hERG1 constructs were transfected into mammalian HEK cells. Conventional overlap PCR with primers were synthesized by Sigma Genosys (Oakville, Ontario, Canada) and sequenced by using Eurofins MWG Operon (Huntsville, AL) to create the single- and double-point mutant constructs of hERG1. Following this, XbaI restriction endonuclease was used to linearize and the cRNA was transcribed in vitro using the mMessage mMachine T7 Ultra cRNA transcription kit (Ambion, Austin, TX).
(§2) All experiments were performed under room temperature (295 K). The extracellular solution contained (mM) NaCl 140, KCl 5.4, CaCl2 1, MgCl2 1, HEPES 5, glucose 5.5; the pH of the solution was adjusted and kept at 7.4 with NaOH solution. Micropipettes were pulled from borosilicate glass capillary tubes using a programmable horizontal puller (Sutter Instruments, Novato, CA). […] Tail currents were recorded when the voltage was returned to −100 mV from +50 mV. […] The changes of hERG1 currents during the intracellular dialysis of the drug were monitored each minute right after forming the whole cell configuration. […]

Another data set has as its target T1, hERG1 (Homo sapiens, UniProt Q12809).
T1 construct: expressed in transfected cells; host or cells: HEK 293
Description: intracellular application of drug via the patch pipette, hERG1 current. In kind it is cell-based. The settings on record: 100 µM (15-fold greater than extracellular IC50). The protocol:
All experiments were performed under room temperature (295 K). The extracellular solution contained (mM) NaCl 140, KCl 5.4, CaCl2 1, MgCl2 1, HEPES 5, glucose 5.5; the pH of the solution was adjusted and kept at 7.4 with NaOH solution. Micropipettes were pulled from borosilicate glass capillary tubes using a programmable horizontal puller (Sutter Instruments, Novato, CA). The “intracellular” pipette solution contained the following: 10 mM KCl, 110 mM K-aspartate, 5 mM MgCl2, 5 mM Na2ATP, 10 mM EGTA [ethylene glycol-bis(-aminoethyl ether)-N,N,N,N tetraacetic acid], 5 mM HEPES, and 1mM CaCl2. The internal solution was then adjusted to pH 7.2 with KOH solution. Transfected HEK cells were patched to record the hERG1 currents. Standard patch-clamp methods were used to measure the whole cell currents of hERG1 mutants expressed in HEK 293 cells using the AXOPATCH 200B amplifier (Axon Instruments). Tail currents were recorded when the voltage was returned to −100 mV from +50 mV. Ivabradine was dissolved in Tyrode solution immediately before the experiments and the solutions were used for the next 2 h during the experiments. […] The changes of hERG1 currents during the intracellular dialysis of the drug were monitored each minute right after forming the whole cell configuration.

Another data set deals with T2, F557L/F656C hERG1 (Homo sapiens, UniProt Q12809, F557L/F656C).
T2 construct: expressed in transfected cells; host or cells: HEK 293
Description: whole-cell patch-clamp of hERG1 tail currents, double mutation F557L/F656C. Format: cell-based.
Excerpt: as §1, §2

The next data set addresses WT hERG1 (Homo sapiens, UniProt Q12809). Description: cell-based. The settings on record: HEK 293 cells.
Excerpt: as §1, §2

Chain of WT hERG1 (Q12809 whole entry): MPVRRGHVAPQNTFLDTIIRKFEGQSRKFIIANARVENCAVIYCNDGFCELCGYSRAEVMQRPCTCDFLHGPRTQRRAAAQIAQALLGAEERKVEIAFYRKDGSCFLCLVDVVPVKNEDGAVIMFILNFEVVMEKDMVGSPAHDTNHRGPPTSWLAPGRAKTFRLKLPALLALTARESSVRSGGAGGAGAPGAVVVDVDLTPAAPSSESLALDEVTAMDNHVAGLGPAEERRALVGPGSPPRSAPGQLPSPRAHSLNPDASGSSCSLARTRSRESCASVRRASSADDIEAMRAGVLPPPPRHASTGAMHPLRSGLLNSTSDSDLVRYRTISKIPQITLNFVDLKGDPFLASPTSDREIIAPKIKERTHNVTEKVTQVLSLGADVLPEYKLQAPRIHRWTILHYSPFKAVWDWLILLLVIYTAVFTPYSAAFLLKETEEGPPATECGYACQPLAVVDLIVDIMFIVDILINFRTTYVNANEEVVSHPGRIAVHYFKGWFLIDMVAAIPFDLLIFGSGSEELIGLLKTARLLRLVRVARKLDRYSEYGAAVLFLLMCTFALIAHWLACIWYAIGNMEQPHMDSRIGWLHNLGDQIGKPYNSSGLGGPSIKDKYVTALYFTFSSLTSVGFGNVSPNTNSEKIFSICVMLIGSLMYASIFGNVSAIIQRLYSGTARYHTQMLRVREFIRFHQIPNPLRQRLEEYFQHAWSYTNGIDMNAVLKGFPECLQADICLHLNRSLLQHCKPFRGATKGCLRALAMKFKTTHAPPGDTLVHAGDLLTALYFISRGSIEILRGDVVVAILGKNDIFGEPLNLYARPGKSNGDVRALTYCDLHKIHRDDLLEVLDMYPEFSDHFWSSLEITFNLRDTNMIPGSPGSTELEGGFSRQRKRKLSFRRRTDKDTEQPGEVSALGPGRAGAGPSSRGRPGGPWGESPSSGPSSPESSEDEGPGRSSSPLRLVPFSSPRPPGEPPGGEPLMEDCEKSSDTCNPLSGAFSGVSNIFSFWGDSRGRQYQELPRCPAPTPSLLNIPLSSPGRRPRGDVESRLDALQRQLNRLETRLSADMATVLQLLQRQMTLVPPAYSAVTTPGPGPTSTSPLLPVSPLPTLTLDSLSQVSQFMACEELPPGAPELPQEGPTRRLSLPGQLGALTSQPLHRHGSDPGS
T2 sequence (Q12809 whole entry F557L/F656C): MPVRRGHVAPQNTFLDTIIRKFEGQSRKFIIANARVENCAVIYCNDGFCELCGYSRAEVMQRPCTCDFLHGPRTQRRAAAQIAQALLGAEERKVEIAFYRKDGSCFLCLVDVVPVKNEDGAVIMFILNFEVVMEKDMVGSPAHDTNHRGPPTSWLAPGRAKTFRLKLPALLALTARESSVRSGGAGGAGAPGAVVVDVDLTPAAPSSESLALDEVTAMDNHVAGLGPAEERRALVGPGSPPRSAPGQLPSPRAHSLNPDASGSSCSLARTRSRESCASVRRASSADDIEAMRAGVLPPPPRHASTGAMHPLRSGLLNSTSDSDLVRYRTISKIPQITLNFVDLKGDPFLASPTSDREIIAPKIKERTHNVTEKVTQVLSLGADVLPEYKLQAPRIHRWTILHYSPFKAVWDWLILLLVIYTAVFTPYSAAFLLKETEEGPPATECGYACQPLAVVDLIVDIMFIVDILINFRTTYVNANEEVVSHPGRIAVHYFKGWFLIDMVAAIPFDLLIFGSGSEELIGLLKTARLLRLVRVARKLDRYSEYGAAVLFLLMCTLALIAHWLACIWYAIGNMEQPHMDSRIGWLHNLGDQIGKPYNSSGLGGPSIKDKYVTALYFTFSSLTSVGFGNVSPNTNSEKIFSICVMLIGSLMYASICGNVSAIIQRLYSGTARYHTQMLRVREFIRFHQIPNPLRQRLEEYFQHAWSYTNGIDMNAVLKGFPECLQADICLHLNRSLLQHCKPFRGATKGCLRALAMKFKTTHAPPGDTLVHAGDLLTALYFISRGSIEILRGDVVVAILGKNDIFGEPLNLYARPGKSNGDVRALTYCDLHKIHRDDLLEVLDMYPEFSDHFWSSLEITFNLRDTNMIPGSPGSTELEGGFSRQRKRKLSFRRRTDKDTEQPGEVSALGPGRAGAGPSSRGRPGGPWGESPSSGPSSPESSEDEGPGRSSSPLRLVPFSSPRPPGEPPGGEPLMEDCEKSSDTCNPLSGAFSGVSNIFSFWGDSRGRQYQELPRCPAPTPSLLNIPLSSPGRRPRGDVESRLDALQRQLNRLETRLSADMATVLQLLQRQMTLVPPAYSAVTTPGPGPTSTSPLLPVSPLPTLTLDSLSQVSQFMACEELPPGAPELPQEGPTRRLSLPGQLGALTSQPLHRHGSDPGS
T1 sequence (Q12809 whole entry): as the sequence (Q12809 whole entry) above
Chain of F656C hERG1 (Q12809 whole entry F656C): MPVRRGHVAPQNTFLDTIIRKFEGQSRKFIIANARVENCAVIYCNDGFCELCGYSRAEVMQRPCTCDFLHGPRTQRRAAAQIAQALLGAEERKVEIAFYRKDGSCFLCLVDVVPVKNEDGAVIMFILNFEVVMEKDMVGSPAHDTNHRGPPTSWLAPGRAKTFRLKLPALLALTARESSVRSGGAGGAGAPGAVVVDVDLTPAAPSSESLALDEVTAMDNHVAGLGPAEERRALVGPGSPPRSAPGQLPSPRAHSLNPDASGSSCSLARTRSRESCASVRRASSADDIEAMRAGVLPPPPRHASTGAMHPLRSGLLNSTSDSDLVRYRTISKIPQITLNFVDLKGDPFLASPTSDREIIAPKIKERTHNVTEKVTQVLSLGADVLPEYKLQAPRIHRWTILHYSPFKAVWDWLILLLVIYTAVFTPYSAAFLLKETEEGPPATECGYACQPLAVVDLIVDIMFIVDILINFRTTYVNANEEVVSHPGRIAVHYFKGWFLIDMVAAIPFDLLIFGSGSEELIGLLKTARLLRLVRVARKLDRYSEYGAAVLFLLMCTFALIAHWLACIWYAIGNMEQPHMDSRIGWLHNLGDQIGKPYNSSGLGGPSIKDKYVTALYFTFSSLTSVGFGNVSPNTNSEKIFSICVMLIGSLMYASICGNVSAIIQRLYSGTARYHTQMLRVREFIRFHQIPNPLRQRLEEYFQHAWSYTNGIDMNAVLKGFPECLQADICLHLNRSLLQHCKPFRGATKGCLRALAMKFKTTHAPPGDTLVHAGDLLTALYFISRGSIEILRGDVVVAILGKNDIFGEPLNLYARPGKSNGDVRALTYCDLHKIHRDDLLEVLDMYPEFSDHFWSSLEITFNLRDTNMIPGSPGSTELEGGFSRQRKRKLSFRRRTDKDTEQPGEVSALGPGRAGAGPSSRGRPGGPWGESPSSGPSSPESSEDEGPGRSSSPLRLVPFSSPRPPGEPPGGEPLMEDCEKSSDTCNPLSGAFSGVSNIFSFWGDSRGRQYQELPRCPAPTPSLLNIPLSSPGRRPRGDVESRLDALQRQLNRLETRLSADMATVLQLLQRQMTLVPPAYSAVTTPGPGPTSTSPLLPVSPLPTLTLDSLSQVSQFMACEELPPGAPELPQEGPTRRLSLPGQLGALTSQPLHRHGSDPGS

As to `CN(CCOc1ccc(NS(C)(=O)=O)cc1)CCc1ccc(NS(C)(=O)=O)cc1` [dofetilide], the IC50 with guinea pig myocytes (read-out: high affinity for binding of dofetilide, high-affinity site) is 0.1 µM; with guinea pig myocytes (read-out: low affinity for binding of dofetilide (low affinity IC50 value), low-affinity site), 1 µM. Also, the “sensitivity of block to the M651T mutation” value in the data set on M651T hERG1 was “insensitive”.
On to `COc1cc2c(cc1OC)CC(=O)N(CCCN(C)C[C@H]1Cc3cc(OC)c(OC)cc31)CC2` [ivabradine], for which the IC50 came out at 45 µM against F656C hERG1; 6.8 µM at WT hERG1 (IC50 for block (Hill fit), WT, Figure 7A); 6.7 µM at WT hERG1 (IC50 for block of hERG1, WT, applied extracellularly, tail currents, room temperature). For the same compound, the “block of hERG1 current when applied intracellularly” value on hERG1 is “little block”. The “block in raw current traces” value at F557L/F656C hERG1 (F557L/F656C, 100 µM Ivabradine vs control) is recorded as “no block”. Besides, on F557L/F656C hERG1 (double mutant F557L/F656C, suprapharmacologic concentrations (dofetilide 20 µM, ivabradine 100 µM)), the blocking is ~ 15%.
